Test results taken from ChEMBL document CHEMBL4507320, “Data for DCP probe NVS-MALT1” (2021).

Experiments:
[1] = biological target: AP2-associated protein kinase 1 (Homo sapiens) (UniProt Q2M2I8); settings: Compound concentration 1000.0 nM
[2] = system: Tyrosine-protein kinase ABL1 (Homo sapiens), P00519 [H396P]; settings: Compound concentration 1000.0 nM
[3] = biological target: Tyrosine-protein kinase ABL1 (Homo sapiens) (UniProt P00519); settings: Compound concentration 1000.0 nM
[4] = biological target: Activin receptor type-2A (Homo sapiens) (UniProt P27037); settings: Compound concentration 1000.0 nM
[5] = system: ALK tyrosine kinase receptor (Homo sapiens), Q9UM73 [C1156Y]; settings: Compound concentration 1000.0 nM
[6] = biological target: Serine/threonine-protein kinase BRSK1 (Homo sapiens) (UniProt Q8TDC3); settings: Compound concentration 1000.0 nM
[7] = biological target: Calcium/calmodulin-dependent protein kinase type II subunit alpha (Homo sapiens) (UniProt Q9UQM7); settings: Compound concentration 1000.0 nM
[8] = biological target: Cyclin-dependent kinase 11B (Homo sapiens) (UniProt P21127); settings: Compound concentration 1000.0 nM
[9] = biological target: Ephrin type-A receptor 7 (Homo sapiens) (UniProt Q15375); settings: Compound concentration 1000.0 nM
[10] = biological target: Ephrin type-B receptor 4 (Homo sapiens) (UniProt P54760); settings: Compound concentration 1000.0 nM
[11] = biological target: Mitogen-activated protein kinase 3 (Homo sapiens) (UniProt P27361); settings: Compound concentration 1000.0 nM
Mitogen-activated protein kinase 3 (Homo sapiens), sequence (P27361 whole entry): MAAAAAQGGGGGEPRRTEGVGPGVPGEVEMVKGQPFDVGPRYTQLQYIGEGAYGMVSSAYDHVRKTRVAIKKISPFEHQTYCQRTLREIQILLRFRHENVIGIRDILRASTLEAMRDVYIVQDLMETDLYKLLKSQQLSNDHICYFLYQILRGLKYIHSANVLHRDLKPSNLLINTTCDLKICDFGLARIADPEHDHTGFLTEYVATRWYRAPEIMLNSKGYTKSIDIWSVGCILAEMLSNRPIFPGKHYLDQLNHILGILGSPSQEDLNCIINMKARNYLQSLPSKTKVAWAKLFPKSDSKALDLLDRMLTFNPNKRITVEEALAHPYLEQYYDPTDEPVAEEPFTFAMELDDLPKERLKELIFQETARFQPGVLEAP

[12] = biological target: Focal adhesion kinase 1 (Homo sapiens) (UniProt Q05397); settings: Compound concentration 1000.0 nM
[13] = system: Receptor-type tyrosine-protein kinase FLT3 (Homo sapiens), P36888 [UNDEFINED MUTATION]; settings: Compound concentration 1000.0 nM
[14] = biological target: Tyrosine-protein kinase JAK1 (Homo sapiens) (UniProt P23458); settings: Compound concentration 1000.0 nM
[15] = system: Mast/stem cell growth factor receptor Kit (Homo sapiens), P10721 [D816V]; settings: Compound concentration 1000.0 nM
[16] = biological target: Leucine-rich repeat serine/threonine-protein kinase 2 (Homo sapiens) (UniProt Q5S007); settings: Compound concentration 1000.0 nM
[17] = biological target: Dual specificity mitogen-activated protein kinase kinase 3 (Homo sapiens) (UniProt P46734); settings: Compound concentration 1000.0 nM
[18] = biological target: Serine/threonine-protein kinase mTOR (Homo sapiens) (UniProt P42345); settings: Compound concentration 1000.0 nM
[19] = biological target: Myosin-IIIb (Homo sapiens) (UniProt Q8WXR4); settings: Compound concentration 1000.0 nM
Myosin-IIIb (Homo sapiens), sequence (Q8WXR4 whole entry): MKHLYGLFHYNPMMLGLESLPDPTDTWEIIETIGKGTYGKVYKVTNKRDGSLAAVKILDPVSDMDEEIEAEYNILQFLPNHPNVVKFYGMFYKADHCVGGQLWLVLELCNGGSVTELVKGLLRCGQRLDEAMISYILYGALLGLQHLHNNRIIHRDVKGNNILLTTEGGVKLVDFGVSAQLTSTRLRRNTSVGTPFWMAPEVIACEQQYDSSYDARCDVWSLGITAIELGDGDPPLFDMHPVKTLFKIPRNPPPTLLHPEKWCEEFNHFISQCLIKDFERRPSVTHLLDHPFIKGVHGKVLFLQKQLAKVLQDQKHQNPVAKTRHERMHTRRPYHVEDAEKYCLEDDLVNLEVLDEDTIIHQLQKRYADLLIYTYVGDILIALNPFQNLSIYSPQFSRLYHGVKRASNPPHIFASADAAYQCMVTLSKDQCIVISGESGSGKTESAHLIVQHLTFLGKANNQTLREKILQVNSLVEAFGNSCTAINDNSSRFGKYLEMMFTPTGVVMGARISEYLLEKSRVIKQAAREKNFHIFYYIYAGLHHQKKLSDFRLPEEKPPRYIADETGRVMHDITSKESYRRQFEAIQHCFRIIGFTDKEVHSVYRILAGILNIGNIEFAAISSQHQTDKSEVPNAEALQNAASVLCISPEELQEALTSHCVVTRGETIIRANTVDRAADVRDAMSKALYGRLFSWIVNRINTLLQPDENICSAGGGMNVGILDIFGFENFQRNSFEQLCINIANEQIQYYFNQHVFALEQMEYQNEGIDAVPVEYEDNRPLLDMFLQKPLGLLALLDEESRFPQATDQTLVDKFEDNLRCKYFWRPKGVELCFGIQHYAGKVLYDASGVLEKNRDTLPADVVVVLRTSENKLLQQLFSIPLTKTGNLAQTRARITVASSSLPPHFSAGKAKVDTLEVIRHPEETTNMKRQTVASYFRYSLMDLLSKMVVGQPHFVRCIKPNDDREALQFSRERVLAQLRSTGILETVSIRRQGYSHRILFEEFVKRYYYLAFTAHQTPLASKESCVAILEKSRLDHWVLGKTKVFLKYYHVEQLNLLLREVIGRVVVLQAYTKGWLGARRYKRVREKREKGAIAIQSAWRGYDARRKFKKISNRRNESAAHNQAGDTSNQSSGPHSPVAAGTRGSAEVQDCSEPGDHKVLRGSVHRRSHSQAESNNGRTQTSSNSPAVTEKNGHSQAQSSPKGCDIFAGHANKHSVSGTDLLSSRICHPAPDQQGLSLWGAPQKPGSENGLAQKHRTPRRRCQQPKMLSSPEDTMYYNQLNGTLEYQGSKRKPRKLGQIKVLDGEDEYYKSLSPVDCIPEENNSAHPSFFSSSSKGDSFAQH

[20] = biological target: Serine/threonine-protein kinase 38-like (Homo sapiens) (UniProt Q9Y2H1); settings: Compound concentration 1000.0 nM
[21] = biological target: Cyclin-dependent kinase 17 (Homo sapiens) (UniProt Q00537); settings: Compound concentration 1000.0 nM
[22] = biological target: 3-phosphoinositide-dependent protein kinase 1 (Homo sapiens) (UniProt O15530); settings: Compound concentration 1000.0 nM
[23] = biological target: Calcium-dependent protein kinase 1 (Plasmodium falciparum) (UniProt P62344); settings: Compound concentration 1000.0 nM
[24] = biological target: Phosphatidylinositol 4,5-bisphosphate 3-kinase catalytic subunit beta isoform (Homo sapiens) (UniProt P42338); settings: Compound concentration 1000.0 nM
Phosphatidylinositol 4,5-bisphosphate 3-kinase catalytic subunit beta isoform (Homo sapiens), sequence (P42338 whole entry, looked up, canonical isoform): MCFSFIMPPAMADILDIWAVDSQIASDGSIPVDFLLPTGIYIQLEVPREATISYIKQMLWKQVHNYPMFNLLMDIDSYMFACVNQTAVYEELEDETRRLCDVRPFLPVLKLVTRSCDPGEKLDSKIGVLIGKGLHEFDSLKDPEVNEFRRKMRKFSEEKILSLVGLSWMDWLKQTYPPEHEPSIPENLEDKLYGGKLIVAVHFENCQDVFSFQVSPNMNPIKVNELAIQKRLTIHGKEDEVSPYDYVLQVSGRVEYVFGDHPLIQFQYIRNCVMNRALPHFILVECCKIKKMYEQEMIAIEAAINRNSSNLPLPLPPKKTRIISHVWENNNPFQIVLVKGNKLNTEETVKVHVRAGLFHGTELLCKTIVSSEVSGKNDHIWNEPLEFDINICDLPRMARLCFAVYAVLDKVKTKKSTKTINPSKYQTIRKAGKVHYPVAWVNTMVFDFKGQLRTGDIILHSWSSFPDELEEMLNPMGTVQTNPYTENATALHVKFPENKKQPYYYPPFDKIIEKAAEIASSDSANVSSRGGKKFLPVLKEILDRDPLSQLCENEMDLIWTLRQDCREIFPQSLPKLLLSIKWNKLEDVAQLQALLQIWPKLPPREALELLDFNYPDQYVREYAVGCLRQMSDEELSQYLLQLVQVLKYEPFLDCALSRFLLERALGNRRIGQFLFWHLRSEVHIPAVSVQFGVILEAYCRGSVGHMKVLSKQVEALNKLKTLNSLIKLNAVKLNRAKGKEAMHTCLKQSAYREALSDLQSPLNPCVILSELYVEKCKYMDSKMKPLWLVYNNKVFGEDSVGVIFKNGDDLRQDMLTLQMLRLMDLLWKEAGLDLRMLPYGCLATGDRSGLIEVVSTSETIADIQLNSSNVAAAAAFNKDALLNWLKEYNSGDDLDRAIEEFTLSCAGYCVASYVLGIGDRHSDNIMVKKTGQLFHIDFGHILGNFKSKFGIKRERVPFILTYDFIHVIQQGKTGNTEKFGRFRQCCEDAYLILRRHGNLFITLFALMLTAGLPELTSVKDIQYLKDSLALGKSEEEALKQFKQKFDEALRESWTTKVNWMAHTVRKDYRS

[25] = biological target: Serine/threonine-protein kinase D2 (Homo sapiens) (UniProt Q9BZL6); settings: Compound concentration 1000.0 nM
[26] = biological target: RAF proto-oncogene serine/threonine-protein kinase (Homo sapiens) (UniProt P04049); settings: Compound concentration 1000.0 nM
RAF proto-oncogene serine/threonine-protein kinase (Homo sapiens), sequence (P04049 whole entry): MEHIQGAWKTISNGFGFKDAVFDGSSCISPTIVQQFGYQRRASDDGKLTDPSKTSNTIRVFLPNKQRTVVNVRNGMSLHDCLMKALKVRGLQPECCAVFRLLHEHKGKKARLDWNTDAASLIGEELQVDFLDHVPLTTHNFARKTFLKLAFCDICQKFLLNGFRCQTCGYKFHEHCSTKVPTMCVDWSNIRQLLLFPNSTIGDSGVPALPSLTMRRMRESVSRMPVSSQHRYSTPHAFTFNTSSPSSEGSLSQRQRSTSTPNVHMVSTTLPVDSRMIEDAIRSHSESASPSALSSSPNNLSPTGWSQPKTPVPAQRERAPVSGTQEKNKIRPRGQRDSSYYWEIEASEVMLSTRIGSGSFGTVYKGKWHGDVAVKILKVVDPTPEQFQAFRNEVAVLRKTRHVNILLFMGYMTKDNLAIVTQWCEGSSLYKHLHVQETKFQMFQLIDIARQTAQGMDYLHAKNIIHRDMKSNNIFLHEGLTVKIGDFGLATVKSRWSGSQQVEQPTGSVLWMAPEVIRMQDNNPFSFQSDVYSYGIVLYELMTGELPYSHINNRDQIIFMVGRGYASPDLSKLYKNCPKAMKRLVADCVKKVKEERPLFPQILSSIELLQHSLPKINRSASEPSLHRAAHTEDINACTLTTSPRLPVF

[27] = biological target: Receptor-interacting serine/threonine-protein kinase 1 (Homo sapiens) (UniProt Q13546); settings: Compound concentration 1000.0 nM
[28] = biological target: Rho-associated protein kinase 2 (Homo sapiens) (UniProt O75116); settings: Compound concentration 1000.0 nM
Rho-associated protein kinase 2 (Homo sapiens), sequence (O75116 whole entry, looked up): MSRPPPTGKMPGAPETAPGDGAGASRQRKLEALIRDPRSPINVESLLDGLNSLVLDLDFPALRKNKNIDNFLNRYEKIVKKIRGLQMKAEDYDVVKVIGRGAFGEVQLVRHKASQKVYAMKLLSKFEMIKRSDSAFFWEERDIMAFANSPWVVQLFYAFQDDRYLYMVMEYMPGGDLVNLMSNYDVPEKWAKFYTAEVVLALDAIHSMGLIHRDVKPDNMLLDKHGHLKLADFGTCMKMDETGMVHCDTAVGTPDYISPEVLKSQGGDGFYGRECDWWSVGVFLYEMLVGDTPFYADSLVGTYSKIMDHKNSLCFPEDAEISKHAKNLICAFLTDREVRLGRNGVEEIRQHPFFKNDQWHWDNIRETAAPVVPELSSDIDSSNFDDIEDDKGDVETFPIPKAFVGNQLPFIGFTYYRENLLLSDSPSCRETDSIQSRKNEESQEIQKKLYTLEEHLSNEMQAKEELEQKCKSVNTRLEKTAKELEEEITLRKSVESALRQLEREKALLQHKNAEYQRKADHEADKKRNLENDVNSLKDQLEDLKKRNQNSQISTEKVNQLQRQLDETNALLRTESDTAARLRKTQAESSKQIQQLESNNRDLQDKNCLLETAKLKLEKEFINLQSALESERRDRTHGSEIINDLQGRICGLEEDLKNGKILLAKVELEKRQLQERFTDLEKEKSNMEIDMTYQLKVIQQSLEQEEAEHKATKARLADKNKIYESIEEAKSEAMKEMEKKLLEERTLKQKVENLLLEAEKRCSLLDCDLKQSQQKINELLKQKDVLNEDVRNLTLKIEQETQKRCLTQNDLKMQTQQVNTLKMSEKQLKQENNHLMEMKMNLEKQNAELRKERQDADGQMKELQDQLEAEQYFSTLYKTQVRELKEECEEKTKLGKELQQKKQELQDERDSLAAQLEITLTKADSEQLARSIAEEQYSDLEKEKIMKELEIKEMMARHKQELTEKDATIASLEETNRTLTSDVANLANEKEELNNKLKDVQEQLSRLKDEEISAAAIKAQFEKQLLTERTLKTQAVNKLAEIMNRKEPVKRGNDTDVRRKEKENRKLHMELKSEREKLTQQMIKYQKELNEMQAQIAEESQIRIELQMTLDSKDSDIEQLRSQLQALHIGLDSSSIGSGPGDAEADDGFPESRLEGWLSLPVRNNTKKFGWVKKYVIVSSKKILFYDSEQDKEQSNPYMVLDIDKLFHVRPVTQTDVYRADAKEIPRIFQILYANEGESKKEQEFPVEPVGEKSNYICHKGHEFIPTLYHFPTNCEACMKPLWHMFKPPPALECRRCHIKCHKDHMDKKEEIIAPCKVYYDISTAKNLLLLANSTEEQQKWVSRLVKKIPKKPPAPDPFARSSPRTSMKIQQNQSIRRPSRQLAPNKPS

[29] = biological target: Serine/threonine-protein kinase SBK1 (Homo sapiens) (UniProt Q52WX2); settings: Compound concentration 1000.0 nM
[30] = biological target: Serine/threonine-protein kinase 33 (Homo sapiens) (UniProt Q9BYT3); settings: Compound concentration 1000.0 nM
[31] = biological target: Serine/threonine-protein kinase 36 (Homo sapiens) (UniProt Q9NRP7); settings: Compound concentration 1000.0 nM
[32] = biological target: Serine/threonine-protein kinase TAO1 (Homo sapiens) (UniProt Q7L7X3); settings: Compound concentration 1000.0 nM
[33] = biological target: Serine/threonine-protein kinase TNNI3K (Homo sapiens) (UniProt Q59H18); settings: Compound concentration 1000.0 nM
[34] = biological target: NT-3 growth factor receptor (Homo sapiens) (UniProt Q16288); settings: Compound concentration 1000.0 nM
[35] = biological target: Serine/threonine-protein kinase WNK1 (Homo sapiens) (UniProt Q9H4A3); settings: Compound concentration 1000.0 nM
[36] = biological target: Serine/threonine-protein kinase 32B (Homo sapiens) (UniProt Q9NY57); settings: Compound concentration 1000.0 nM
[37] = biological target: Tyrosine-protein kinase Yes (Homo sapiens) (UniProt P07947); settings: Compound concentration 1000.0 nM
[38] = biological target: Mu-type opioid receptor (Homo sapiens) (UniProt P35372); settings: Compound concentration 10.0 uM
[39] = biological target: Histamine H1 receptor (Homo sapiens) (UniProt P35367); settings: Compound concentration 10.0 uM

CO[C@@H](C)c1c(Nc2ccc([C@H](N(C)C(=O)C3CCS(=O)(=O)CC3)C(F)(F)F)cc2)cnc2cc(Cl)nn12 [NVS-MALT1]
inactive: residual activity [1] 84% | residual activity [2] 100% | residual activity [3] 59% | residual activity [4] 93% | residual activity [5] 89% | residual activity [6] 78% | residual activity [7] 83% | residual activity [8] 88% | residual activity [9] 84% | residual activity [10] 100% | residual activity [11] 100% | residual activity [12] 85% | residual activity [13] 90% | residual activity [14] 91% | residual activity [15] 96% | residual activity [16] 100% | residual activity [17] 93% | residual activity [18] 100% | residual activity [19] 82% | residual activity [20] 75% | residual activity [21] 75% | residual activity [22] 100% | residual activity [23] 97% | residual activity [24] 65% | residual activity [25] 83% | residual activity [26] 97% | residual activity [27] 91% | residual activity [28] 100% | residual activity [29] 100% | residual activity [30] 51% | residual activity [31] 91% | residual activity [32] 100% | residual activity [33] 73% | residual activity [34] 100% | residual activity [35] 100% | residual activity [36] 89% | residual activity [37] 99% | inhibition [38] 6.13% | inhibition [39] 10.2%

CO[C@@H](C)c1c(Nc2ccc([C@@H](N(C)C(=O)C3CCS(=O)(=O)CC3)C(F)(F)F)cc2)cnc2cc(Cl)nn12 [NVS-MALT1-C]
inactive: residual activity [1] 96% | residual activity [2] 98% | residual activity [3] 59% | residual activity [4] 100% | residual activity [5] 79% | residual activity [6] 93% | residual activity [7] 83% | residual activity [8] 100% | residual activity [9] 87% | residual activity [10] 100% | residual activity [11] 86% | residual activity [12] 90% | residual activity [13] 87% | residual activity [14] 90% | residual activity [15] 99% | residual activity [16] 100% | residual activity [17] 90% | residual activity [18] 100% | residual activity [19] 100% | residual activity [20] 75% | residual activity [21] 100% | residual activity [22] 97% | residual activity [23] 78% | residual activity [24] 72% | residual activity [25] 86% | residual activity [26] 100% | residual activity [27] 84% | residual activity [28] 100% | residual activity [29] 100% | residual activity [30] 51% | residual activity [31] 94% | residual activity [32] 100% | residual activity [33] 91% | residual activity [34] 100% | residual activity [35] 98% | residual activity [36] 95% | residual activity [37] 100% | inhibition [38] 6.39% | inhibition [39] -9.88%
